This is an account of results in US20150164875A1, “Compound Preparation of Lercanidipine and Atorvastatin” (ZHAOKE PHARMACEUTICAL (GUANGZHOU) COMPANY LIMITED, priority 2012, published 2015).

Assay [1] has as its system rats with spontaneous hypertension (adult MHS rats) fed with high fat diet. Nature of the assay: Systolic pressure in rats with spontaneous hypertension accompanied by dyslipidemia (Example 4). It is filed as in vivo, rat. Conditions: for systolic pressure: B 0.4 mg/kg, C 0.8 mg/kg, D 0.4 mg/kg+0.8 mg/kg, Mean ± SD. The procedure:
(§1) 5-month-old rats with spontaneous hypertension (adult MHS rats), half males and half females, were fed with high fat diet every day (1.0% of cholesterol, 0.2% of propylthiouracil, 0.5% of sodium cholate, 5.0% of lard, 1.0% of methionine and 92.3% of basal diet) for four weeks; after four weeks, the basal systolic pressure and lipid levels in rats weighing 200-240 g were determined. Rats with hypertension accompanied with dyslipidemia were evenly divided into 4 groups with 12 rates in each group. The four groups were respectively as follows: solvent control group (A), lercanidipine group (lercanidipine hydrochloride, 0.4 mg/kg) (B), atorvastatin group (atorvastatin calcium, 0.8 mg/kg) (C), and lercanidipine/atorvastatin compound group (lercanidipine hydrochloride+atorvastatin calcium, 0.4 mg/kg+0.8 mg/kg) (D). Each group of drugs was formulated with physiological saline, and were administered to rats by gavage once a day for 4 consecutive weeks. Rats were measured 2 hours after administration at the end of each week for the systolic pressure and total serum cholesterol levels and so on.

Assay [2] shares this test system. Nature of the assay: Total serum cholesterol in rats with spontaneous hypertension accompanied by dyslipidemia (Example 4). It is filed as in vivo, rat. The note with it: for total cholesterol: B 0.4 mg/kg, C 0.8 mg/kg, D 0.4 mg/kg+0.8 mg/kg, Mean ± SD; for change in total cholesterol (in words): over 4 weeks of administration, C and D p<0.05, B p>0.05. The procedure: as §1

The subject of assay [3] is SD rats with hypertension accompanied by dyslipidemia. Description: Serum TC and TG in experimental rats with hypertension accompanied by dyslipidemia (Example 5). The note with it: for TC / TG: gavage once a day, serum after 20 weeks, Mean ± SD; for TC and TG as compared with the solvent control group (in words): end of week 20, lercanidipine 0.5 mg/kg, atorvastatin 1.0 mg/kg, compound 0.5 mg/kg+0.5/1.0/2.0 mg/kg, positive control 0.5 mg/kg+1.0 mg/kg. It is filed as in vivo, rat. The procedure:
SD rats, weighing 150-180 g, were anaesthetized by intraperitoneal injection with chloral hydrate (320 mg/kg). The abdominal cavity was opened, and the left renal artery was separated and was restricted with 0.2 mm silver clip. […] Rats in normal control group were fed with normal diet. After four weeks, systolic pressure was measured in rats, serum total cholesterol (TC) and triglyceride (TG) levels were determined by taking blood from tail vein.
(§2) 140 rats with hypertension accompanied by dyslipidemia were evenly divided into 7 groups with 20 rats in each group according to blood pressure and lipid levels, which were respectively solvent control group, lercanidipine group (lercanidipine hydrochloride, 0.5 mg/kg), atorvastatin group (atorvastatin calcium, 1.0 mg/kg), lercanidipine/atorvastatin compound group 1 (lercanidipine hydrochloride+atorvastatin calcium, 0.5 mg/kg+0.5 mg/kg), lercanidipine/atorvastatin compound group 2 (lercanidipine hydrochloride+atorvastatin calcium, 0.5 mg/kg+1.0 mg/kg), lercanidipine/atorvastatin compound group 3 (lercanidipine hydrochloride+atorvastatin calcium, 0.5 mg/kg+2.0 mg/kg), and positive control group (amlodipine besylate+atorvastatin calcium, 0.5 mg/kg+1.0 mg/kg).
(§3) Another 20 normal rats served as normal control group. Rats with hypertension were continued to be fed with the high-fat diet, and rats in normal group were fed with normal diet. Each group of drugs was formulated with physiological saline, and for the normal control group and solvent control group rats, same volume of physiological saline were administered. Rats were administered by gavage once a day for 20 consecutive weeks. Rats were weighed once a week, and the dosage was adjusted based on the weight. Blood pressures in different time points before and after administration were measured respectively to calculate the magnitude of the decrease in blood pressure (systolic pressure before administration−systolic pressure after administration). Rats were sampled 20 weeks later, and the serum total cholesterol (TC) and triglyceride (TG) levels were determined. The corresponding parameters for each group were represented with the mean±standard deviation (Mean±SD), and t-test was used to compare different groups.

Assay [4] has the same test system. Nature of the assay: Decrease in systolic pressure in experimental (renal artery clip) rats with hypertension accompanied by dyslipidemia (Example 5). The note with it: for Degree of antihypertension: gavage once a day, 20 weeks, systolic pressure before minus after administration, Mean ± SD; for systolic pressure as compared with the solvent control group (in words): end of week 20, lercanidipine 0.5 mg/kg, atorvastatin 1.0 mg/kg, compound 0.5 mg/kg+0.5/1.0/2.0 mg/kg, positive control 0.5 mg/kg+1.0 mg/kg. It is filed as in vivo, rat. The method, then:
SD rats, weighing 150-180 g, were anaesthetized by intraperitoneal injection with chloral hydrate (320 mg/kg). The abdominal cavity was opened, and the left renal artery was separated and was restricted with 0.2 mm silver clip. At 8-10 weeks following the procedure, rats with systolic pressure ≧140 mmHg were recognized as hypertension rats. Rats with hypertension were administered with vitamin D3 by gavage in a total dosage of 600,000 U/kg in three days, and then were fed with high-fat diet every day (cholesterol 1.0%, propylthiouracil 0.2%, sodium cholate 0.5%, lard 5.0%, methionine 1.0%, basal diet 92.3%). Rats in normal control group were fed with normal diet. After four weeks, systolic pressure was measured in rats, serum total cholesterol (TC) and triglyceride (TG) levels were determined by taking blood from tail vein.
as §2, §3

For assay [5] the following is noted: cited from earlier work.
[6] abbreviates: 0 week (basal, before administration).
The mark [7] stands for this setting: 1 week, 2 hours after administration, gavage once a day.
[8] abbreviates: 2 weeks, 2 hours after administration, gavage once a day.
Where [9] appears, read: 3 weeks, 2 hours after administration, gavage once a day.
The mark [10] stands for this setting: 4 weeks, 2 hours after administration, gavage once a day.

Molecules are shown by their SMILES. Counter-ions that a name gives are not always drawn. Like-named read-outs stand apart in the source and are kept apart here.

Regarding `COC(=O)C1=C(C)NC(C)=C(C(=O)OC(C)(C)CN(C)CCC(c2ccccc2)c2ccccc2)C1c1cccc([N+](=O)[O-])c1` (stereo not drawn) [Group B, lercanidipine hydrochloride], the systolic pressure in assay [1] (setting [6]) is 162 ± 4.1 mmHg; in assay [1] (setting [7]), 158 ± 3.7 mmHg; in assay [1] (setting [8]), 149 ± 5.1 mmHg; in assay [1] (setting [9]) it was 138 ± 3.4 mmHg; in assay [1] (setting [10]), 135 ± 2.5 mmHg. For the same compound, in assay [1] (over 4 weeks of administration, p<0.01), the “change in systolic pressure (in words)” value is recorded as “decreased to normal blood pressure levels”. The total cholesterol was 8.49 ± 3.01 mmol/L in assay [2] (setting [6]); 7.95 ± 2.48 mmol/L in assay [2] (1 week, gavage once a day); 7.55 ± 1.94 mmol/L in assay [2] (2 weeks, gavage once a day); 7.28 ± 1.76 mmol/L in assay [2] (3 weeks, gavage once a day); 7.01 ± 1.77 mmol/L in assay [2] (4 weeks, gavage once a day). The “change in total cholesterol (in words)” value in assay [2] was “decreased”. The TC in assay [3] (dosage 0.5 mg/kg) amounted to 8.27 ± 2.96 mmol/L. The compound further registered a TG in assay [3] (dosage 0.5 mg/kg) of 2.43 ± 1.21 mmol/L. The “TC and TG as compared with the solvent control group (in words)” value in assay [3] was “improved”. In addition, the Degree of antihypertension in assay [4] (dosage 0.5 mg/kg) was 35.8 ± 9.65 mmHg. Besides, the “systolic pressure as compared with the solvent control group (in words)” value in assay [4] is on record as “significantly decreased”.
For `CC(C)c1c(C(=O)Nc2ccccc2)c(-c2ccccc2)c(-c2ccc(F)cc2)n1CC[C@@H](O)C[C@@H](O)CC(=O)[O-].CC(C)c1c(C(=O)Nc2ccccc2)c(-c2ccccc2)c(-c2ccc(F)cc2)n1CC[C@@H](O)C[C@@H](O)CC(=O)[O-].[Ca+2]` [Group C, atorvastatin calcium], the systolic pressure was 160 ± 5.3 mmHg in assay [1] (setting [6]); 166 ± 2.9 mmHg in assay [1] (setting [7]); 161 ± 5.1 mmHg in assay [1] (setting [8]); 159 ± 4.2 mmHg in assay [1] (setting [9]); 158 ± 3.7 mmHg in assay [1] (setting [10]). For the same compound, the values for the lipid-lowering effect improved in assay [5] (comparing with the same dose of lovastatin), in assay [5] (comparing with the same dose of pravastatin) and in assay [5] (comparing with the same dose of simvastatin) were 51%, 46% and 38%, respectively. Moreover, the total cholesterol in assay [2] (setting [6]) is reported as 8.75 ± 2.65 mmol/L; in assay [2] (1 week, gavage once a day) it was 7.51 ± 1.79 mmol/L; in assay [2] (2 weeks, gavage once a day), 6.67 ± 2.03 mmol/L; in assay [2] (3 weeks, gavage once a day), 6.15 ± 1.47 mmol/L; in assay [2] (4 weeks, gavage once a day), 5.72 ± 1.48 mmol/L. The “change in total cholesterol (in words)” value in assay [2] is “significant”. Moreover, the TC in assay [3] (dosage 1.0 mg/kg) was determined as 5.27 ± 4.03 mmol/L. The compound further displayed a TG in assay [3] (dosage 1.0 mg/kg) of 1.49 ± 0.74 mmol/L. The “TC and TG as compared with the solvent control group (in words)” value in assay [3] was “significantly decreased”. In assay [4] (dosage 1.0 mg/kg), this compound registered a Degree of antihypertension of 2.4 ± 1.98 mmHg. In assay [4], the “systolic pressure as compared with the solvent control group (in words)” value is given as “improved”.
